Reference: PMC10584170, “Machine learning-based phenotypic imaging to characterise the targetable biology of Plasmodium falciparum male gametocytes for the development of transmission-blocking antimalarials” (PLOS Pathogens, 2023)

Tests used:
[1] = tested on: P. falciparum female gametocytes; test: P. falciparum Dual Gamete Formation Assay (PfDGFA), female readout (Pfs25-positive female gametes); format: cell-based, Plasmodium falciparum NF54; settings: for % inhibition female (individual replicates) R1: replicate R1; for % inhibition female (individual replicates) R3: replicate R3; for % inhibition female (individual replicates) R4: replicate R4; for Average inhibition female (%): average of replicates
How it was run: (§1)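 Mature NF54 gametocytes (day 14) were incubated with compound for 24 h at 37°C under 1% O2/3% CO2, then triggered with xanthurenic acid ookinete medium plus Cy3-anti-Pfs25. Exflagellation was imaged by brightfield; after a further 24 h at 28°C, Pfs25-positive female gametes were imaged by fluorescence and counted by automated image analysis.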

[2] = tested on: P. falciparum male gametocytes; test: P. falciparum Dual Gamete Formation Assay (PfDGFA), male readout (exflagellation); format: cell-based, Plasmodium falciparum NF54; settings: for % inhibition male (individual replicates) R1: replicate R1; for % inhibition male (individual replicates) R3: replicate R3; for % inhibition male (individual replicates) R4: replicate R4; for Average inhibition male (%): average of replicates; for Activity: hit = >50% inhibition in male or female readout in at least 3 replicates, 0 = no class assigned
How it was run: as §1

[3] = PfDGFA at 2µM, 24h preincubation with gametocytes prior to induction of gametogenesis
[4] = PfDGFA at 2µM, 24h preincubation
[5] = 2µM, 24h preincubation with gametocytes prior to induction of gametogenesis
[6] = 2µM, 24h preincubation, number of replicates with >50% inhibition in the female readout
[7] = 2µM, 24h preincubation, number of replicates with >50% inhibition in the male readout
[8] = 2µM, 24h preincubation, hits selected on >50% inhibition in the female readout across replicates
[9] = 2µM, 24h preincubation, hits selected on >50% inhibition in the male readout across replicates
[10] = PfDGFA at 2µM, 24h preincubation with gametocytes
[11] = number of replicates with >50% inhibition in the female readout, 2µM
[12] = number of replicates with >50% inhibition in the male readout, 2µM

| Compound | Average inhibition female (%) [1, 5] | % inhibition female (individual replicates) R1 [1, 5] | % inhibition female (individual replicates) R3 [1, 5] | % inhibition female (individual replicates) R4 [1, 5] | HitlevelF [1, 6] | Average inhibition male (%) [2, 5] | % inhibition male (individual replicates) R1 [2, 5] | % inhibition male (individual replicates) R3 [2, 5] | % inhibition male (individual replicates) R4 [2, 5] | HitlevelM [2, 7] | HitlevelF [1, 8] | HitlevelM [2, 9] | Activity [2, 4] | other results |
| --- | --- | --- | --- | --- | --- | --- | --- | --- | --- | --- | --- | --- | --- | --- |
| Cc1nc2nc(N)nc(N)c2c(C)c1Cc1ccccc1Br.Cl [TCMDC-137242] |  |  |  |  |  |  |  |  |  |  |  |  |  | % inhibition female (individual replicates) R1 [1, 3]: 10.1%; % inhibition female (individual replicates) R3 [1, 3]: -11.3%; % inhibition female (individual replicates) R4 [1, 3]: 2.1%; Average inhibition female (%) [1, 4]: -2.4%; % inhibition male (individual replicates) R1 [2, 3]: 34.5%; % inhibition male (individual replicates) R3 [2, 3]: 1.0%; % inhibition male (individual replicates) R4 [2, 3]: -12.5%; Average inhibition male (%) [2, 4]: 16.6% |
| O=C(/C=C/c1ccc(Cl)c(Cl)c1)N1CCC(CN2CCC(c3c[nH]c4ccncc34)CC2)CC1 [TCMDC-140074] | 19.7% | 24.3% | 8.2% | 6.7% | 0 | 29.9% | 24.9% | -2.0% | 40.2% | 1 |  |  |  |  |
| COc1ccc2ccccc2c1CCCCN1CCN(CC(c2ccc(F)cc2)N2CCC2)CC1.O=C(O)C(F)(F)F (centres unmarked) [TCMDC-135867] | 37.8% | 32.4% | 22.8% | 37.2% | 1 | 8.0% | -5.9% | -10.3% | 17.6% | 0 |  |  |  |  |
| CCc1ccc(N2C(N)=NC(N)=NC2(C)C)cc1.Cl [TCMDC-137714] | 7.9% | 15.9% | 0.5% | 12.9% |  | 9.1% | 34.5% | 9.3% | -34.5% |  | 0 | 0 | 0 |  |
| Nc1nc(N)c2c(ccc3c2ccn3Cc2ccccn2)n1 [TCMDC-137980] |  |  |  |  |  |  |  |  |  |  |  |  |  | % inhibition female (individual replicates) R1 [1, 3]: 1.3%; % inhibition female (individual replicates) R3 [1, 3]: -9.6%; % inhibition female (individual replicates) R4 [1, 3]: 4.7%; Average inhibition female (%) [1, 4]: -4.0%; % inhibition male (individual replicates) R1 [2, 3]: -11.9%; % inhibition male (individual replicates) R4 [2, 3]: -51.4%; Average inhibition male (%) [2, 4]: -22.7% |
| CC(CCCCCC(=O)Nc1ccc(CC(C)NCCc2cccc(Cl)c2)cc1)NCCc1cccc(Cl)c1 (centres unmarked) [TCMDC-139800] | 20.4% | 18.8% | 1.8% | 5.6% | 1 | 45.2% | 25.8% | -13.9% | 77.6% | 2 |  |  |  |  |
| CCc1cc2c3c(N)nc(N)nc3ccc2n1CC [TCMDC-137851] | 9.4% | 20.5% | -5.1% | 10.4% |  | -13.9% | 35.0% | -28.2% | -58.5% |  | 0 | 0 | 0 |  |
| CC(=O)Nc1ccc2[nH]cc(C3CCN(CC4CCN(C(=O)/C=C/c5ccc(Cl)c(Cl)c5)CC4)CC3)c2n1 [TCMDC-140112] | 33.3% | 35.7% | 28.7% | 36.0% | 0 | 36.8% | 41.7% | 26.0% | 45.6% | 0 |  |  |  |  |
| N=C(NCC1CC1c1ccccc1)c1cccc(C(=N)NCC2CC2c2ccccc2)n1 (centres unmarked) [TCMDC-137456] |  |  |  |  |  |  |  |  |  |  |  |  |  | Average inhibition female (%) [1, 10]: 33.5%; % inhibition female (individual replicates) R1 [1, 10]: 27.8%; % inhibition female (individual replicates) R3 [1, 10]: 24.0%; % inhibition female (individual replicates) R4 [1, 10]: 33.0%; HitlevelF [1, 11]: 0; Average inhibition male (%) [2, 10]: 66.3%; % inhibition male (individual replicates) R1 [2, 10]: 75.4%; % inhibition male (individual replicates) R3 [2, 10]: 23.0%; % inhibition male (individual replicates) R4 [2, 10]: 81.6%; HitlevelM [2, 12]: 3 |
| COc1ccc(-c2cnc3[nH]cc(-c4ccncc4)c3c2)cc1OC [TCMDC-135853] |  |  |  |  |  |  |  |  |  |  |  |  |  | Average inhibition female (%) [1, 10]: 15.5%; % inhibition female (individual replicates) R1 [1, 10]: 9.0%; % inhibition female (individual replicates) R3 [1, 10]: 36.4%; % inhibition female (individual replicates) R4 [1, 10]: 5.3%; HitlevelF [1, 11]: 0; Average inhibition male (%) [2, 10]: 73.2%; % inhibition male (individual replicates) R1 [2, 10]: 70.5%; % inhibition male (individual replicates) R3 [2, 10]: 62.1%; % inhibition male (individual replicates) R4 [2, 10]: 76.3%; HitlevelM [2, 12]: 4 |
| COc1cccc(CCN(Cc2ccccc2-c2ccc(CNC3CC(C)(C)NC(C)(C)C3)cc2)C(=O)NC2CCCCC2)c1.Cl [TCMDC-141577] | 13.0% | 16.8% | -15.5% | 31.4% |  | 1.5% | 8.1% | -2.0% | 2.2% |  | 0 | 0 | 0 |  |
| Cc1cc(N2C(N)=NC(N)=NC2(C)C)ccc1Cl.Cl [TCMDC-137705] | 4.4% | 16.7% | -1.9% | -1.7% |  | -12.7% | 23.4% | -17.5% | -53.8% |  | 0 | 0 | 0 |  |
| COc1cc2c(cc1OCCN1CCC(N)CC1)N(C(=O)/C=C/c1ccccc1Cl)CC2.Cl [TCMDC-140969] | 11.8% | 7.5% | 2.9% | 33.3% |  | 28.3% | 26.3% | 11.1% | 42.2% |  | 0 | 0 | 0 |  |
| Cc1ccc(-n2cc(CNCC3CCN(CCO)CC3)c(-c3ccc(F)cc3)n2)cc1 [TCMDC-124689] | 19.9% | 20.1% | 19.4% | 10.0% | 0 | 53.6% | 49.0% |  | 58.1% | 2 |  |  |  |  |
| OCc1c(Cl)cc(Cl)cc1CNCCCNc1nc2ccccc2[nH]1 [TCMDC-140012] |  |  |  |  |  |  |  |  |  |  |  |  |  | % inhibition female (individual replicates) R1 [1, 3]: -1.6%; % inhibition female (individual replicates) R3 [1, 3]: -10.9%; % inhibition female (individual replicates) R4 [1, 3]: -3.1%; Average inhibition female (%) [1, 4]: -6.6%; % inhibition male (individual replicates) R1 [2, 3]: -9.5%; % inhibition male (individual replicates) R4 [2, 3]: -7.6%; Average inhibition male (%) [2, 4]: -5.6% |
| CC(Cc1ccc(NC(=O)c2ccc(CNCCc3ccccc3)cc2)cc1)NCCc1cccc(Cl)c1.Cl (centres unmarked) [TCMDC-139867] | 17.5% | 19.8% | 17.3% | 1.2% |  | 35.8% | 30.2% | 5.8% | 68.9% |  | 0 | 1 | 0 |  |
| CN1CCN(CC2(Nc3nccc(NCCc4cn(C)c5ccccc45)n3)CCCCC2)CC1 [TCMDC-135122] | 24.1% | 17.1% | 12.9% | 28.9% | 0 | 31.6% | 31.6% | 5.8% | 52.9% | 1 |  |  |  |  |
